Data set [1] in a line: Cytotoxicity in HepG2-NTCP cells by CellTiter-Glo. The data set is classed as cell-based, human. Conditions: human, single drug, day 9. How it is done:
(§1) In this study, HepG2-NTCP cell in vitro infection model was used to evaluate the inhibitory activity of a combined administration of compound WWSO with Entecavir (ETV) on HBV The content of HBV DNA in cell supernatant was detected by real-time quantitative PCR (qPCR) method, and the content of HBeAg and HBsAg was detected by ELISA, and the anti-HBV activity of the combined action of the compound was determined, while CellTiter-Glo was used to detect the effect of the test compound on cell viability.
(§2) Cell line: HepG2-NTCP cell line was constructed and provided by WuXi AppTec. HepG2-NTCP cells were HepG2 cells stably transfected and continued to highly express the human NTCP gene, and were susceptible to be infected by HBV The cell medium was DMEM medium added with 10% fetal bovine serum, 1% Penicillin-Streptomycin, 1% glutamine, 1% non-essential amino acids and G418 (500 µg/mL).
(§3) 2.5 On day 9, cell plate supernatant treated by compound was collected and DNA was extracted according to the QIAamp 96 DNA Blood Kit (12) instructions. HBeAg and HBsAg were detected according to the instructions of ELISA detection kit, meanwhile, the cytotoxicity of compound pairs was detected by CellTiter-Glo kit, and the chemiluminescence intensity (RLU) of each cell well was detected by multifunctional microplate reader according to the method of kit instructions. HBV DNA was quantified by qPCR method. HBV plasmid DNA was used as the standard, and standard HBV plasmid DNA concentration was diluted 7 points starting from 10^7 copies/µL at a 10-fold gradient. The HBV DNA copy number was calculated in each test sample by fitting the standard curve using the HBV DNA copy number and CT values of each standard.
For orientation: In ATP-based viability assays light output follows the ATP content of the culture.

Data set [2] relates to D-type HBV. Put plainly: Single drug anti-HBV activity in HepG2-NTCP in vitro infection model. The data set is classed as cell-based, Hepatitis B Virus. Conditions: for EC50: Hepatitis B virus, 216 h, HepG2-NTCP. How it is done:
as §1, §2
Virus: D-type HBV was concentrated from HepG2.2.15 cell culture supernatants.
2.1 On day 0, HepG2-NTCP cells were seeded into a 48-well cell culture plate at a density of 75,000 cells/well, and then the cells were cultured at 5% CO2 and 37° C. overnight.
2.2 On day 2, HBV was added to infect HepG2-NTCP cells.
2.3 On day 3, WWSO and ETV single drugs were administered at seven different concentrations, respectively, or WWSO in combination with ETV was administered at 5 different concentrations in orthorhombic proportion, added to 48-well plates with each combination having three duplicate plates.
2.4 On day 6, the cell supernatant was discarded and fresh medium containing the compounds was added, and the cells were cultured at 5% CO2 and 37° C. for 3 days.
as §3

The test system of data set [3] is D-type HBV. Put plainly: Combined administration in HBV-infected PHH, 5x5 matrix, MacSynergy II analysis. The data set is classed as cell-based, Hepatitis B Virus. Conditions: two-drug combination with Peg-IFNα-2a; for antagonistic index (inhibition of HBsAg and HBeAg): 95% confidence interval. How it is done: On day 0, primary human hepatocytes were resuscitated and plated into six 48-well plates (1.32×10^5 cells/well).
On day 1, […] (2000 GE/cell). On the second day, different groups of combined drugs were added for treatment:
The arrangement of the compounds in the combined action is shown in Table 2, and the test concentrations of the compounds are shown in Table 3.
The final concentration of DMSO in the cell medium was 2%. The medium was replaced with the medium containing the compound on days 4 and 6. On day 8, the culture supernatant was collected for detecting HBV DNA, HBeAg and HBsAg, and then the collected supernatant was added with CellTiter-Glo to measure cell viability.
The arrangement of the compounds in the combined action is shown in Table 4, and the test concentrations of the compounds are shown in Table 5.
The final concentration of DMSO in the medium was 2%. The medium was replaced with the medium containing the compound on days 4 and 6. On day 8, the culture supernatant was collected for detecting HBV DNA, HBeAg and HBsAg, and then the collected cell supernatant was added with CellTiter-Glo to measure cell viability.
(§4) HBV DNA detection: DNA in the supernatant was extracted according to the DNA extraction kit (Qiagen-51162), and HBV DNA in the sample was quantified by qPCR method, and the qPCR reaction system is shown in Table 6. HBV plasmid DNA was used as a standard for 10-fold serial dilution, and the standard range was from 1.0× 10^7 copies/µL to 10 copies/µL. The PCR reaction program was: Heating at 95° C. for 10 minutes, then cycle mode was entered, and heating at 95° C. for 15 seconds, then at 60° C. for 1 minute for a total of 40 cycles. The HBV DNA content in the samples was calculated based on the standard curve and the Ct value of each sample.
(§5) Detection of HBeAg and HBsAg: According to the instructions of ELISA kit, the levels of HBeAg and HBsAg in supernatant were detected. The method was briefly described as follows: 50 µL, of standard was taken, and sample and control sample were added into the detection plate, then 50 µL of enzyme conjugate was added to each well, incubated at 37° C. for 60 minutes, and washed with a washing solution and then dried, and then 50 µL of pre-mixed luminescent substrate was added and the mixture was incubated at room temperature for 10 minutes in the dark, and finally the luminescence value was measured by a microplate reader. The content of HBeAg and HBsAg in the sample was calculated according to the standard curve and the chemiluminescence value of each sample.
(§6) Inhibition rate %=(1- HBV DNA content or HBsAg content or HBeAg content in the sample/HBV DNA content or HBsAg content or HBeAg content in DMSO control group) × 100
Combined efficacy was analyzed by MacSynergy™ II software.

The next data set deals with HepG2-NTCP cells. Description: Cytotoxicity in HepG2-NTCP cells by CellTiter-Glo. The data set is classed as cell-based, human. Conditions: single drug and combined action experiments. How it is done:
as §1, §2, §3

Data set [4] relates to D-type HBV. Description: Single drug in vitro antiviral activity in HBV-infected PHH (HBV DNA qPCR, HBeAg and HBsAg ELISA). The note with it: for EC50: Hepatitis B virus, 192 h, Day 8. Format: cell-based, Hepatitis B Virus. How it is done:
1. The PHH model was used to evaluate the single drug in vitro antiviral activity of the test compound
On day 0, primary human hepatocytes were resuscitated and plated into two 48-well plates (1.32×10^5 cells/well).
On day 1, HBV was added to infect PHH (2000 GE/cell). […] Fresh medium with compound was replaced every 1 to 2 days.
The final concentration of DMSO in the medium was 2%.
The medium was replaced with the fresh medium containing the compound on days 4, 6, 8, 10, 12, 14, 16, 18 and 20. On day 22, the culture supernatant was collected and cell viability was detected using CellTiter-Glo.
Cell culture supernatants on days 8, 14 and 22 were collected for HBV DNA, HBeAg and HBsAg detection.
as §4, §5, §6
CC50 and EC50 were calculated by GraphPad Prism software, and the inhibition curve fitting method was sigmoidal dose-response (variable slope).
(Real-time PCR tracks product formation cycle by cycle.)

Data set [5] in a line: Cell viability of PHH by CellTiter-Glo. The data set is classed as cell-based, human. The note with it: human, primary human hepatocytes (PHH), HBV infection model, administration after infection, Day 22. How it is done: (§7) The medium was replaced with the fresh medium containing the compound on days 4, 6, 8, 10, 12, 14, 16, 18 and 20. On day 22, the culture supernatant was collected and cell viability was detected using CellTiter-Glo. The final concentration of DMSO in the cell medium was 2%. The medium was replaced with the medium containing the compound on days 4 and 6. On day 8, the culture supernatant was collected for detecting HBV DNA, HBeAg and HBsAg, and then the collected supernatant was added with CellTiter-Glo to measure cell viability. The final concentration of DMSO in the medium was 2%. The medium was replaced with the medium containing the compound on days 4 and 6. On day 8, the culture supernatant was collected for detecting HBV DNA, HBeAg and HBsAg, and then the collected cell supernatant was added with CellTiter-Glo to measure cell viability. Cell viability detection: After collecting the cell culture supernatant, CellTiter-Glo was diluted with medium at a ratio of 1:1, and added to the cell plate, and left at room temperature for 10 minutes to detect the luminescence value with a microplate reader. Cell activity% = (luminescence value of sample-average value of blank control well)/(luminescence value of DMSO control group-average value of blank control well) × 100 CC50 and EC50 were calculated by GraphPad Prism software, and the inhibition curve fitting method was sigmoidal dose-response (variable slope).

The test system of data set [6] is human primary hepatocytes (PHH). Description: Cell viability of PHH by CellTiter-Glo. The data set is classed as cell-based. How it is done: as §7

Bounds are passed on as bounds.

Regarding `C=C1[C@H](CO)[C@@H](O)C[C@@H]1n1cnc2c(=O)[nH]c(N)nc21` [ETV, Entecavir, reference compound], the CC50 (in general, the concentration that lowers cell viability or growth by half) at 9 day of experiment (read-out) in data set [1] is over 20 nM. Further, the EC50 (in general, the midpoint of the concentration-response curve) with D-type HBV [2] (day 9, read-out: HBV DNA EC50) is 0.06 nM; in the data set with D-type HBV [2] (day 9, read-out: HBeAg EC50), over 20 nM; with D-type HBV [2] (day 9, read-out: HBsAg EC50), over 20 nM.

As to `COCCCOc1cc2c(cc1OC)-c1cc(=O)c(C(=O)O)cn1[C@H](c1sccc1Cl)O2` [WWS02], in the data set on D-type HBV [3], the “combined effect on the inhibition of HBsAg and HBeAg” value (shortened to “combined effect on the inhibition”) was “synergistic or additive effects”; the “antagonistic index (inhibition of HBsAg and HBeAg)” value turned out to be 0.

Turning to `COCCCOc1cc2c(cc1Cl)-c1cc(=O)c(C(=O)O)cn1[C@H](c1cccs1)O2` [WWS0], the “cytotoxicity within the test concentration range” value with HepG2-NTCP cells is “no obvious cytotoxicity”; in data set [6] (single drug and combined action experiment), “no obvious cytotoxicity”. In data set [1], the cytotoxic concentration (CC50) at 9 day of experiment (read-out) is over 100 nM. For the same compound, the “inhibition of HBV DNA, HBeAg and HBsAg” value in the data set on D-type HBV [2] (HepG2-NTCP infected by HBV) is on record as “dose-dependent manner”; in the data set with D-type HBV [4] (PHH in vitro infection model, single drug), “dose-dependent manner”. For the same compound, the EC50 is 1.01 nM with D-type HBV [2] (day 9, read-out: HBV DNA EC50); 2.51 nM in the data set with D-type HBV [2] (day 9, read-out: HBeAg EC50); 3.19 nM in the data set with D-type HBV [2] (day 9, read-out: HBsAg EC50); 45.5 nM with D-type HBV [4] (PHH, administration after infection, read-out: EC50 (Day 8) HBV DNA); 32.4 nM in the data set on D-type HBV [4] (PHH, administration after infection, read-out: EC50 (Day 8) HBeAg); 47.3 nM with D-type HBV [4] (PHH, administration after infection, read-out: EC50 (Day 8) HBsAg). Moreover, the EC50 came to 13.5 nM in the data set on D-type HBV [4] (PHH, administration before infection, read-out: EC50 (Day 8) HBV DNA); 26 nM in the data set on D-type HBV [4] (PHH, administration before infection, read-out: EC50 (Day 8) HBeAg); 47.1 nM in the data set on D-type HBV [4] (PHH, administration before infection, read-out: EC50 (Day 8) HBsAg). For the same compound, the “inhibition of HBV replication, administration before versus after HBV infection” value in the data set with D-type HBV [4] (PHH, two modes of administration compared) was “basically the same”. In addition, in data set [5], the CC50 at 22 day of experiment (read-out) is over 1000 nM. The compound also yielded a CC50 in data set [6] (administration before infection, Day 22) of over 1000 nM.

Take `O=C(O)c1cn2c(cc1=O)-c1cc(Cl)c(OCCN3CCOCC3)cc1OC2c1ccccc1` (stereo not drawn) [WWS01]: in the data set with D-type HBV [3], the “combined effect on the inhibition” value is “synergistic or additive effects”; the “antagonistic index (inhibition of HBsAg and HBeAg)” value was 0.

On to `O=C(O)c1cn2c(cc1=O)-c1cc(Cl)c(OCC3CC3)cc1O[C@H]2c1scnc1Cl` [WWS03], for which, in the data set with D-type HBV [3], the “combined effect on the inhibition” value is “synergistic or additive effects”; the “antagonistic index (inhibition of HBsAg and HBeAg)” value was 0.

For the origin of these results see US20230183263A1, “COMBINATION FOR TREATING HEPATITIS B” (FUJIAN AKEYLINK BIOTECHNOLOGY CO., LTD., priority 2020, published 2023).
